Source: patent US20100298141A1, “SUBSTITUTED PYRIDINE N-OXIDE HERBICIDES” (E. I. DU PONT DE NEMOURS AND COMPANY, priority 2007, published 2010)

How the values were obtained:
Experiment in all cases: Test F preemergence test
large crabgrass = format: in vivo, Digitaria sanguinalis; details: scale 0 to 100
Outline: (§1)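 Test chemicals were formulated in a non-phytotoxic solvent mixture with surfactant and applied preemergence to planted seeds or postemergence to sugarcane plants. Plants were kept in a greenhouse for 14 to 21 days, then visually evaluated against controls.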

southern sandbur = format: in vivo, Cenchrus echinatus; details: scale 0 to 100
Outline: as §1

bermudagrass = format: in vivo, Cynodon dactylon; details: scale 0 to 100
Outline: as §1

Surinam grass = format: in vivo, Brachiaria decumbens; details: scale 0 to 100
Outline: as §1

common purslane = format: in vivo, Portulaca oleracea; details: scale 0 to 100
Outline: as §1

pitted morningglory = format: in vivo, Ipomoea lacunosa; details: scale 0 to 100
Outline: as §1

Italian ryegrass = format: in vivo, Lolium multiflorum; details: scale 0 to 100
Outline: as §1

prickly sida = format: in vivo, Sida spinosa; details: scale 0 to 100
Outline: as §1

naked crabgrass = format: in vivo, Digitaria nuda; details: scale 0 to 100
Outline: as §1

purple nutsedge = format: in vivo, Cyperus rotundus; details: scale 0 to 100
Outline: as §1

goosegrass = format: in vivo, Eleusine indica; details: scale 0 to 100
Outline: as §1

johnsongrass = format: in vivo, Sorghum halepense; details: scale 0 to 100
Outline: as §1

quackgrass = format: in vivo, Elytrigia repens; details: scale 0 to 100
Outline: as §1

guineagrass = format: in vivo, Panicum maximum; details: scale 0 to 100
Outline: as §1

common groundsel = format: in vivo, Senecio vulgaris; details: 125 g ai/ha, preemergence, scale 0 to 100
Outline: as §1

common ragweed = format: in vivo, Ambrosia elation; details: scale 0 to 100
Outline: as §1

kochia = format: in vivo, Kochia scoparia; details: scale 0 to 100
Outline: as §1

Cc1cc[n+]([O-])c(S(=O)(=O)Cc2c(C(F)(F)F)nn(C)c2OCC(F)(F)F)c1 [Compound 31]
Plant response rating, Crabgrass, Large (large crabgrass; 16 g ai/ha, preemergence): 30
Crabgrass, Large plant response rating (large crabgrass; 125 g ai/ha, preemergence): 100
Plant response rating, Crabgrass, Large (large crabgrass; Preemergence, 31 g ai/ha): 95
Plant response rating, Sandbur (southern sandbur; 16 g ai/ha, preemergence): 40
Sandbur plant response rating (southern sandbur; 125 g ai/ha, preemergence): 100
Plant response rating, Sandbur (southern sandbur; Preemergence, 62 g ai/ha): 100
Plant response rating, Sandbur (southern sandbur; Preemergence, 31 g ai/ha): 90
Plant response rating, Bermudagrass (bermudagrass; 16 g ai/ha, preemergence): 20
Bermudagrass plant response rating (bermudagrass; 62 g ai/ha, Preemergence): 100
Bermudagrass plant response rating (bermudagrass; 125 g ai/ha, preemergence): 100
Plant response rating, Bermudagrass (bermudagrass; Preemergence, 31 g ai/ha): 75
Plant response rating, Surinam Grass (Surinam grass; 16 g ai/ha, preemergence): 20
Surinam Grass plant response rating (Surinam grass; 125 g ai/ha, preemergence): 100
Plant response rating, Surinam Grass (Surinam grass; Preemergence, 62 g ai/ha): 95
Plant response rating, Surinam Grass (Surinam grass; Preemergence, 31 g ai/ha): 85
Plant response rating, Purslane (common purslane; 16 g ai/ha, preemergence): 25
Purslane plant response rating (common purslane; 62 g ai/ha, Preemergence): 40
Purslane plant response rating (common purslane; 125 g ai/ha, preemergence): 65
Plant response rating, Morningglory (pitted morningglory; 16 g ai/ha, preemergence): 0
Morningglory plant response rating (pitted morningglory; 62 g ai/ha, Preemergence): 60
Morningglory plant response rating (pitted morningglory; 125 g ai/ha, preemergence): 98
Plant response rating, Morningglory (pitted morningglory; Preemergence, 31 g ai/ha): 20
Plant response rating, Ryegrass, Italian (Italian ryegrass; 16 g ai/ha, preemergence): 50
Ryegrass, Italian plant response rating (Italian ryegrass; 125 g ai/ha, preemergence): 90
Plant response rating, Ryegrass, Italian (Italian ryegrass; Preemergence, 62 g ai/ha): 90
Plant response rating, Ryegrass, Italian (Italian ryegrass; Preemergence, 31 g ai/ha): 90
Plant response rating, Prickly Sida (prickly sida; 16 g ai/ha, preemergence): 40
Prickly Sida plant response rating (prickly sida; 62 g ai/ha, Preemergence): 80
Prickly Sida plant response rating (prickly sida; 125 g ai/ha, preemergence): 100
Plant response rating, Prickly Sida (prickly sida; Preemergence, 31 g ai/ha): 75
Plant response rating, Crabgrass, Naked (naked crabgrass; 16 g ai/ha, preemergence): 75
Crabgrass, Naked plant response rating (naked crabgrass; 62 g ai/ha, Preemergence): 100
Crabgrass, Naked plant response rating (naked crabgrass; 125 g ai/ha, preemergence): 100
Plant response rating, Crabgrass, Naked (naked crabgrass; Preemergence, 31 g ai/ha): 85
Plant response rating, Purple Nutsedge (purple nutsedge; 16 g ai/ha, preemergence): 40
Purple Nutsedge plant response rating (purple nutsedge; 62 g ai/ha, Preemergence): 70
Purple Nutsedge plant response rating (purple nutsedge; 125 g ai/ha, preemergence): 100
Plant response rating, Purple Nutsedge (purple nutsedge; Preemergence, 31 g ai/ha): 50
Plant response rating, Goosegrass (goosegrass; 16 g ai/ha, preemergence): 50
Goosegrass plant response rating (goosegrass; 62 g ai/ha, Preemergence): 100
Goosegrass plant response rating (goosegrass; 125 g ai/ha, preemergence): 100
Plant response rating, Goosegrass (goosegrass; Preemergence, 31 g ai/ha): 75
Plant response rating, Johnsongrass (johnsongrass; 16 g ai/ha, preemergence): 40
Johnsongrass plant response rating (johnsongrass; 62 g ai/ha, Preemergence): 100
Johnsongrass plant response rating (johnsongrass; 125 g ai/ha, preemergence): 100
Plant response rating, Johnsongrass (johnsongrass; Preemergence, 31 g ai/ha): 50
Plant response rating, Quackgrass (quackgrass; 16 g ai/ha, preemergence): 15
Quackgrass plant response rating (quackgrass; 62 g ai/ha, Preemergence): 75
Quackgrass plant response rating (quackgrass; 125 g ai/ha, preemergence): 95
Plant response rating, Quackgrass (quackgrass; Preemergence, 31 g ai/ha): 65
Plant response rating, Guineagrass (guineagrass; 16 g ai/ha, preemergence): 80
Guineagrass plant response rating (guineagrass; 62 g ai/ha, Preemergence): 100
Guineagrass plant response rating (guineagrass; 125 g ai/ha, preemergence): 100
Plant response rating, Guineagrass (guineagrass; Preemergence, 31 g ai/ha): 100
Groundsel plant response rating (common groundsel): 100
Plant response rating, Ragweed (common ragweed; 16 g ai/ha, preemergence): 20
Ragweed plant response rating (common ragweed; 125 g ai/ha, preemergence): 100
Plant response rating, Ragweed (common ragweed; Preemergence, 62 g ai/ha): 90
Plant response rating, Ragweed (common ragweed; Preemergence, 31 g ai/ha): 75
Plant response rating, Kochia (kochia; 16 g ai/ha, preemergence): 0
Kochia plant response rating (kochia; 62 g ai/ha, Preemergence): 65
Kochia plant response rating (kochia; 125 g ai/ha, preemergence): 100
Plant response rating, Kochia (kochia; Preemergence, 31 g ai/ha): 0
